In US8431563B2 (priority 2010, dated 2013):
Like-named read-outs stand apart in the source and are kept apart here.

Legend:
[1] = target: T1, interaction between glucokinase (GK) and glucokinase regulatory protein (GKRP) (Homo sapiens, UniProt Q14397); test: biochemical; format: binding; conditions: avi-tagged GKRP, GK-fluorescein, AlphaScreen beads
T1 sequence (Q14397 1-625): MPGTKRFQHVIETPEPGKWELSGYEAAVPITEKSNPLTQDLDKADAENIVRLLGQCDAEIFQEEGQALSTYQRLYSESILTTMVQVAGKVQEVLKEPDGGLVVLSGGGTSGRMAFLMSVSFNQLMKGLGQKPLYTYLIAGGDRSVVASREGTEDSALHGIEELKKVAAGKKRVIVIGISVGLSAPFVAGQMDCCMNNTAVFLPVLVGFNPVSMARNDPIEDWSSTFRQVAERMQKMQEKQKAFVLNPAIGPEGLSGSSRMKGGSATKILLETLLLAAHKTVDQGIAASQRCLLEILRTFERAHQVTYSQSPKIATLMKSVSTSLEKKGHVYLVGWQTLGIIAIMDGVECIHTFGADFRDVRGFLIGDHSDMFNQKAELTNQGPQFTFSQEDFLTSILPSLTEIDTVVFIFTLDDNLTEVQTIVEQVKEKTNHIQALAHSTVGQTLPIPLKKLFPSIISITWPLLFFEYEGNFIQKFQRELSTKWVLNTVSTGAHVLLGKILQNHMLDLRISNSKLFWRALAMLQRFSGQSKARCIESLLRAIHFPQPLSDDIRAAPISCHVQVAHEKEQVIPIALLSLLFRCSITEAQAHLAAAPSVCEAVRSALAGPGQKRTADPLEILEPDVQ
In short: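 Measures direct GK–GKRP binding in 20 mM Tris pH 7.5 containing 1 μM sorbitol-6-phosphate, 0.05% BSA and 1 mM DTT. Compound and avi-tagged GKRP sit 20 min at room temperature before GK-fluorescein addition (6 nM in the added buffer); read after 2 h dark incubation at room temperature.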

[2] = target: T2, GKRP (Glucokinase Regulatory Protein) with human His-hepatic GK (Homo sapiens, UniProt Q14397); test: biochemical
T2 sequence (Q14397 1-625): T1 sequence (Q14397 1-625)
In short: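 Product formation, 13C-glucose-6-phosphate from 13C-glucose, was measured directly by LC MS/MS after acetonitrile quench. The GK reaction ran 30 min at room temperature in Tris pH 7.5 buffer with 4 mM MgCl2 and 6% DMSO. The 5× enzyme stock was 30 nM His-tagged human hepatic glucokinase.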

[3] = read-out: GK-GKRP IC50 (Binding)
[4] = 13C-glucose-6-phosphate formation, 280 nM GKRP (10×), 30 nM GK (5×), read-out: GK-GKRP EC50 (LC MS/MS-2)
[5] = GK-GKRP EC50 (LC MS/MS-2), 13C-glucose-6-phosphate formation, 280 nM GKRP (10×), 30 nM GK (5×)

| Structure (SMILES) | IC50 [1, 3] [nM] | EC50 [2, 4] [nM] | IC50 ([1]; GK-GKRP IC50 (Binding)) [nM] | EC50 [2, 5] [nM] | EC50 ([2]; GK-GKRP EC50 (LC MS/MS-2)) [nM] |
| --- | --- | --- | --- | --- | --- |
| Nc1ccc(S(=O)(=O)N2CCN(c3ccc(C(O)(C(F)(F)F)C(F)(F)F)cc3)[C@@H](CC3CCOCC3)C2)cn1 [Example 126, 2-(4-((2S)-4-((6-amino-3-pyridinyl)sulfonyl)-2-(tetrahydro-2H-pyran-4-ylmethyl)-1-piperazinyl)phenyl)-1,1,1,3,3,3-hexafluoro-2-propanol] | 22 | 37 |  |  |  |
| CC(O)(c1ccc(N2CCN(S(=O)(=O)c3cccs3)C[C@@H]2CN2CCS(=O)(=O)CC2C2CC2)cc1)C(F)(F)F (mixture of isomers) [Example 87, 2-(4-((2S)-2-((3-cyclopropyl-1,1-dioxido-4-thiomorpholinyl)methyl)-4-(2-thiophenylsulfonyl)-1-piperazinyl)phenyl)-1,1,1-trifluoro-2-propanol] | 229 | 246 |  |  |  |
| C[C@H]1COCCN1C[C@H]1CN(S(=O)(=O)c2cccs2)CCN1c1ccc(C(O)(CO)C(F)(F)F)cc1 (single isomer, unassigned) [Example 83 Peak #2] | 22 | 16 |  |  |  |
| CC(O)(c1ccc(N2CCN(S(=O)(=O)c3cccs3)C[C@@H]2CSc2cccc(F)c2)cc1)C(F)(F)F (mixture of isomers) [Example 188, 1,1,1-trifluoro-2-(4-((2R)-2-(((3-fluorophenyl)sulfanyl)methyl)-4-(2-thiophenylsulfonyl)-1-piperazinyl)phenyl)-2-propanol] | 112 | 43 |  |  |  |
| C[C@H]1COCCN1C[C@H]1CN(S(=O)(=O)c2ccc(N)nc2)CCN1c1ncc(C(O)(C(F)(F)F)C(F)(F)F)cn1 [Example 128, 2-(2-((2S)-4-((6-amino-3-pyridinyl)sulfonyl)-2-(((3S)-3-methyl-4-morpholinyl)methyl)-1-piperazinyl)-5-pyrimidinyl)-1,1,1,3,3,3-hexafluoro-2-propanol] | 27 | 34 |  |  |  |
| CC(O)(c1ccc(N2CCN(S(=O)(=O)c3cccs3)C[C@@H]2CN2CCOCC2c2ccc(F)cc2)cc1)C(F)(F)F (single isomer, unassigned) [Example 115 Peak #1] | 589 | 308 |  |  |  |
| CC(O)(c1ccc(N2CCN(S(=O)(=O)c3cccs3)C[C@@H]2CN(Cc2cccnc2)S(C)(=O)=O)cc1)C(F)(F)F (mixture of isomers) [Example 221, N-(3-pyridinylmethyl)-N-(((2S)-4-(2-thiophenylsulfonyl)-1-(4-(2,2,2-trifluoro-1-hydroxy-1-methylethyl)phenyl)-2-piperazinyl)methyl)methanesulfonamide] | 13 | 41 |  |  |  |
| C[C@H]1COCCN1C[C@H]1CN(S(=O)(=O)c2nccs2)CCN1c1ccc(C(C)(O)C(F)(F)F)cc1 (mixture of isomers) [Example 102, 1,1,1-trifluoro-2-(4-((2S)-2-(((3S)-3-methyl-4-morpholinyl)methyl)-4-(1,3-thiazol-2-ylsulfonyl)-1-piperazinyl)phenyl)-2-propanol] | 134 | 137 |  |  |  |
| CC(O)(c1ccc(N2CCN(S(=O)(=O)c3cccs3)C[C@@H]2CN2C3CCCC2CC(=O)C3)cc1)C(F)(F)F (mixture of isomers) [Example 140, 9-(((2S)-4-(2-thiophenylsulfonyl)-1-(4-(2,2,2-trifluoro-1-hydroxy-1-methylethyl)phenyl)-2-piperazinyl)methyl)-9-azabicyclo[3.3.1]nonan-3-one] |  |  | 7 | 15 |  |
| CC(O)(c1ccc(N2CCN(S(=O)(=O)c3cccs3)C[C@@H]2CN2C3CCCC2CC(O)C3)cc1)C(F)(F)F (mixture of isomers) [Example 141, 9-(((2S)-4-(2-thiophenylsulfonyl)-1-(4-(2,2,2-trifluoro-1-hydroxy-1-methylethyl)phenyl)-2-piperazinyl)methyl)-9-azabicyclo[3.3.1]nonan-3-ol (endo)] | 11 |  |  | 26 |  |
| CC(C)C1C(=O)NCCN1C[C@H]1CN(S(=O)(=O)c2ccc(N)s2)CCN1c1ncc(C(O)(C(F)(F)F)C(F)(F)F)cn1 (single isomer, unassigned) [Example 184 Peak #1] | 1 | 12 |  |  |  |
| Nc1ccc(S(=O)(=O)N2CCN(c3ncc(C(O)(C(F)(F)F)C(F)(F)F)cn3)[C@@H](CC3CCOCC3)C2)s1 [Example 133, 2-(2-((2S)-4-((5-amino-2-thiophenyl)sulfonyl)-2-(tetrahydro-2H-pyran-4-ylmethyl)-1-piperazinyl)-5-pyrimidinyl)-1,1,1,3,3,3-hexafluoro-2-propanol] | 47 |  |  | 59 |  |
| C[C@H]1C(=O)NCCN1C[C@H]1CN(S(=O)(=O)c2cccs2)CCN1c1ccc(C(C)(O)C(F)(F)F)cc1 (mixture of isomers) [Example 182, (3S)-3-methyl-4-(((2S)-4-(2-thiophenylsulfonyl)-1-(4-(2,2,2-trifluoro-1-hydroxy-1-methylethyl)phenyl)-2-piperazinyl)methyl)-2-piperazinone] | 46 | 69 |  |  |  |
| CC(O)(c1ccc(N2CCN(S(=O)(=O)c3cccs3)C[C@@H]2CNC2COC2)cc1)C(F)(F)F (mixture of isomers) [Example 206, 1,1,1-trifluoro-2-(4-((2S)-2-((3-oxetanylamino)methyl)-4-(2-thiophenylsulfonyl)-1-piperazinyl)phenyl)-2-propanol] | 248 | 343 |  |  |  |
| CC1(C)C(=O)NCCN1C[C@H]1CN(S(=O)(=O)c2cccs2)CCN1c1ncc(C(O)(C(F)(F)F)C(F)(F)F)cn1 [Example 226, 3,3-dimethyl-4-(((2S)-4-(2-thiophenylsulfonyl)-1-(5-(2,2,2-trifluoro-1-hydroxy-1-(trifluoromethyl)ethyl)-2-pyrimidinyl)-2-piperazinyl)methyl)-2-piperazinone] | 6 | 14 |  |  |  |
| O=S(=O)(c1cccs1)N1CCN(c2ccc(C(O)(C(F)(F)F)C(F)(F)F)cc2)C(Cc2ccccc2O)C1 (racemic) [Example 178, 2-((1-(4-(1,1,1,3,3,3-hexafluoro-2-hydroxypropan-2-yl)phenyl)-4-(thiophen-2-ylsulfonyl)piperazin-2-yl)methyl)phenol] | 170 | 84 |  |  |  |
| CC(O)(c1ccc(N2CCN(S(=O)(=O)c3cccs3)C[C@@H]2CN2C3COCC2C(O)C3)cc1)C(F)(F)F (stereo partly drawn) [Example 78, 8-(((2S)-4-(2-thiophenylsulfonyl)-1-(4-(2,2,2-trifluoro-1-hydroxy-1-methylethyl)phenyl)-2-piperazinyl)methyl)-3-oxa-8-azabicyclo[3.2.1]octan-6-ol] | 42 | 50 |  |  |  |
| CCOC(=O)CC1COCCN1C[C@H]1CN(S(=O)(=O)c2cccs2)CCN1c1ccc(C(C)(O)C(F)(F)F)cc1 (mixture of isomers) [Example 113] | 333 | 308 |  |  |  |
| CS(=O)(=O)N(C[C@H]1CN(S(=O)(=O)c2ccc(N)s2)CCN1c1ncc(C(O)(C(F)(F)F)C(F)(F)F)cn1)c1ccccc1 [Example 233, N-(((2R)-4-((5-amino-2-thiophenyl)sulfonyl)-1-(5-(2,2,2-trifluoro-1-hydroxy-1-(trifluoromethyl)ethyl)-2-pyrimidinyl)-2-piperazinyl)methyl)-N-phenylmethanesulfonamide] | < 1 | 8 |  |  |  |
| CC(O)(c1ccc(N2CCN(S(=O)(=O)c3cccs3)C[C@@H]2CN2CC3(COC3)C2)cc1)C(F)(F)F (mixture of isomers) [Example 84, 1,1,1-trifluoro-2-(4-((2S)-2-(2-oxa-6-azaspiro[3.3]hept-6-ylmethyl)-4-(2-thiophenylsulfonyl)-1-piperazinyl)phenyl)-2-propanol] | 667 |  |  |  | 659 |
| CC1CNC(=O)CN1C[C@H]1CN(S(=O)(=O)c2cccs2)CCN1c1ccc(C(C)(O)C(F)(F)F)cc1 (mixture of isomers) [Example 183, 5-methyl-4-(((2S)-4-(2-thiophenylsulfonyl)-1-(4-(2,2,2-trifluoro-1-hydroxy-1-methylethyl)phenyl)-2-piperazinyl)methyl)-2-piperazinone] | 171 | 287 |  |  |  |
